Source: publication PMC8915582, “Validated DBS method for filgotinib quantitation in rat dried blood spots and its application to a pharmacokinetic study in rats” (ADMET & DMPK, 2020)
Like-named read-outs stand apart in the source and are kept apart here.

Tests used:
[1] = Stability of primary stock solutions in DMSO; type: physicochemical; conditions: primary stock in DMSO stored at -20 °C
Description: Two separate primary stock solutions of filgotinib were prepared at 1670 μg/mL in DMSO. Appropriate secondary and working stocks of filgotinib were prepared from primary stock by successive dilution of primary stock with methanol:water (80:20, v/v) to prepare the calibration curve (CC) and quality controls (QCs). The IS primary stock solution was made in DMSO at a concentration of 1000 μg/mL, which was diluted with methanol to 500 ng/mL and subsequently used as IS working stock solution. […] Working stock solutions were stored at 4 °C for 25 days.

rheumatoid arthritis = system: rheumatoid arthritis; parameters: method as in PMID 26994322; conditions: approved pan-JAK inhibitors, moderate to severe rheumatoid arthritis; cited from earlier work
[2] = Pharmacokinetic study in rats (oral and intravenous), filgotinib quantified from dried blood spots by LC-MS/MS; type: in vivo; conditions: male, Sprague Dawley, whole blood (dried blood spots), rat, DBS blood
Description: Freshly drawn rat blood was used to prepare the DBS cards. With the help of a calibrated pipette, 25 μL of the respective spiked CC/QC blood or whole blood collected from the pharmacokinetic study (post administration of filgotinib by intravenous and oral routes) was sampled on DBS card. Spiked cards were allowed to dry at ambient room temperature for 3 h and stored appropriately in a sealed bag with desiccant in a desiccator.
Using a hole puncher (Harri-Micro-Punch®), 3 mm diameter disc was punched from the center of each DBS (FTA DMPK-C Card) card directly into micro-centrifuge tubes. To each micro-centrifuge tube, 200 μL of 0.2% formic acid enriched with 100 ng/mL of IS was added, thereafter the contents were vortex mixed for 5 min (Thermomixer®, Eppendorf) and sonicated (Elmasonic S300 H) for 15 min at ambient room temperature. After sonication, to the same micro-centrifuge, 1.0 mL of ethyl acetate was added and the mixtures were vortexed further for 3 min. The samples were centrifuged at 14,000 rpm for 3 min. Clear organic layer (800 μL) was pipetted out after centrifugation and dried under gentle stream of nitrogen (Turbovap®, Zymark®,Kopkinton, MA, USA) at 50 °C. The residue was reconstituted with 200 μL of 0.2% formic acid in acetonitrile and 150 μL clear supernatant was aliquoted into a HPLC vial and 5.0 μL was injected onto the column for LC-MS/MS analysis.
All the animal experiments were approved by Institutional Animal Ethical Committee (IAEC/JDC/2019/189R). Male Sprague Dawley rats (n=8) were procured from Vivo Biotech, Hyderabad, India. The animals were housed in Jubilant Biosys animal house facility in a temperature (22 ± 2 °C) and humidity (30-70%) controlled room (15 air changes/hour) with a 12:12 h light:dark cycles, had free access to rodent feed (Altromin Spezialfutter GmbH & Co. KG., Im Seelenkamp 20, D-32791, Lage, Germany) and water for one week before using for experimental purpose. Following ~12 h fast (during the fasting period animals had free access to water) animals were divided into two groups having four rats in each group. Group I animals (205-210) received filgotinib orally as a suspension formulation (prepared using Tween-80 and 0.5% methyl cellulose) at 10 mg/kg (strength: 1.0 mg/mL; dose volume: 10 mL/kg), whereas Group II animals (215-225 g) received filgotinib intravenously (5% DMSO, 5% Solutol:absolute alcohol (1:1, v/v) and 90% of normal saline; strength: 0.5 mg/ml; dose volume: 4 ml/kg) at 2.0 mg/kg dose. Post-dosing serial blood samples (50 μL) were collected through retro-orbital plexus into polypropylene tubes containing K2.EDTA solution as an anti-coagulant at 0.25, 0.5, 1, 2, 4, 8, 10, 12 and 24 h (for oral study) and 0.083, 0.25, 0.5, 1, 2, 4, 8 and 24 h (for intravenous study). Animals were allowed to access feed 2 h post-dosing.
Blood concentration-time data of filgotinib was analyzed by non-compartmental method and the relevant pharmacokinetic parameters namely AUC0-∞ (area under the blood concentration-time curve from time zero to infinite time), C0 (extrapolated blood concentration at time zero), Cmax (maximum blood concentration), Tmax (time to reach Cmax), Vd (volume of distribution), CL (clearance) and t½ (terminal half-life) were calculated using Phoenix WinNonlin software (version 8.1; Pharsight Corporation, Mountain View, CA). Absolute oral bioavailability (F) was calculated using this formula [Dose (i.v.) × AUC(0-∞)oral / Dose (oral) × AUC(0-∞)i.v.] × 100.

[3] = parameters: method as in Dixit et al. (2020) [10]; conditions: rat, plasma, values in parentheses, ref Dixit et al. (2020) [10], cited from earlier work
[4] = system: collagen-induced arthritis model; parameters: method as in PMID 24006460; conditions: post oral administration in rodents; cited from earlier work
[5] = system: rheumatoid arthritis patients; parameters: method as in PMID 29566740; conditions: monotherapy at 100 or 200 mg once daily or with methotrexate; cited from earlier work
JAK1 = conditions: cited from earlier work
JAK2 = conditions: JAK1 over JAK2; cited from earlier work

Which “time primary stock solution found to be stable” value [1] does the source give for `C[C@@H]1CCN(C(=O)CC#N)C[C@@H]1N(C)c1ncnc2[nH]ccc12` [Tofacitinib, tofacitinib] here?
Its value is 50 days.

What about the toxicities (rheumatoid arthritis) of the same compound?
Its toxicities is “dose-related toxicities”.

Which AUC(0-inf) ([2]; intravenous, 2.0 mg/kg) does the source give for `O=C(Nc1nc2cccc(-c3ccc(CN4CCS(=O)(=O)CC4)cc3)n2n1)C1CC1` [filgotinib] here?
Its AUC(0-inf) is 1800 ± 188 ng·h/mL.

And the Vd ([2]; intravenous, 2.0 mg/kg)?
Its Vd is 4.17 ± 0.33 L/kg.

And the clearance ([2]; intravenous, 2.0 mg/kg)?
The clearance was 18.7 ± 1.86 mL/min/kg.

And the half-life ([2]; intravenous, 2.0 mg/kg)?
Its half-life is 3.52 ± 0.23 h.

What about the C0 ([2]; intravenous, 2.0 mg/kg, extrapolated concentration at time zero) of the same compound?
The C0 was 1600 ± 55.5 ng/mL.

And the bioavailability ([2]; oral 10 mg/kg vs intravenous 2.0 mg/kg, read-out: F (absolute oral bioavailability))?
The bioavailability was 42.5%.

What about the AUC(0-inf) ([2]; oral, 10 mg/kg) of the same compound?
The AUC(0-inf) was 3720 ± 329 ng·h/mL.

And the Cmax ([2]; oral, 10 mg/kg)?
The Cmax was 804 ± 78.4 ng/mL.

And the Tmax ([2]; oral, 10 mg/kg)?
Its Tmax is 0.5 h.

And the half-life ([2]; oral, 10 mg/kg)?
The half-life was 4.87 ± 0.45 h.

What about the “time primary stock solution found to be stable” value [1] of the same compound?
Its value is 50 days.

And the “AUC(0-∞)” value ([3]; intravenous, 2.0 mg/kg)?
Its value is 1912 ± 123 ng·h/mL.

What about the C0 ([3]; intravenous, 2.0 mg/kg) of the same compound?
The C0 was 1767 ± 128 ng/mL.

What about the CL ([3]; intravenous, 2.0 mg/kg) of the same compound?
Its CL is 17.4 ± 1.08 mL/min/kg.

What about the T1/2 ([3]; intravenous, 2.0 mg/kg) of the same compound?
Its T1/2 is 3.56 ± 0.30 h.

And the Vd ([3]; intravenous, 2.0 mg/kg)?
The Vd was 5.41 ± 0.77 L/kg.

What about the “AUC(0-∞)” value ([3]; oral, 10 mg/kg) of the same compound?
The value was 3475 ± 547 ng·h/mL.

What about the Cmax ([3]; oral, 10 mg/kg) of the same compound?
The Cmax was 802 ± 149 ng/mL.

What about the “F (absolute oral bioavailability)” value ([3]; oral, 10 mg/kg) of the same compound?
The value was 36.3%.

And the T1/2 ([3]; oral, 10 mg/kg)?
The T1/2 was 4.72 ± 0.24 h.

What about the “disease progression in a collagen-induced arthritis model” value [4] of the same compound?
Its value is “dose-dependent reduction of disease progression”.

What about the “tolerability, efficacy and safety in Phase-3 clinical trials” value [5] of the same compound?
The value was “well tolerated, showed efficacy and was found to be safe”.

Which toxicities (rheumatoid arthritis) does the source give for `CCS(=O)(=O)N1CC(CC#N)(n2cc(-c3ncnc4[nH]ccc34)cn2)C1` [baricitinib] here?
Its toxicities is “dose-related toxicities”.
